Laboratory results: patent publication US20070166547A1, “Use of a layer consisting of hydrophobic linear, or two-dimensional polycyclic aromatics as a barrier layer or an encapsulation and electric components constructed with a layer of this type and comprising organic polymers” (priority 2003, published 2007)

Experiments:
[1] = test system: embyronic fibroblasts of mouse NIH-3T3; experiment: Endocellular pHi of fibroblasts by microspectrofluorimetry (FDA, BCECF-AM); assay type: cell-based; conditions: 10 mkM in medium with serum
Procedure: The effect of the compounds according to the invention on the endocellular pH, embyronic fibroblasts of mouse NIH-3T3 supplied by the All-Russian Collection of Cellular Cultures of the Institute of Cytology of the Russian Academy of Sciences St. Petersburg was investigated. The cells were grown in the DMEM (Sigma) medium containing 2.2 g/l of sodium bicarbonate with addition of 80.0 mkg/ml of gentamicin and 10.0% embryonal veal serum at a temperature of 37° C. in an atmosphere containing 5.0% of carbon dioxide. For these experiments use was also made of a medium buffer with 5.0 mM of HEPES and 15.0 mM of sodium bicarbonate without serum or with addition of 5.0% serum. The cells were calculated with the help of a hemocytometer. A share of the dead cells was determined by colouring trypan blue.
The measurements of the endocellular pHi were carried out with the help of colorants FDA (Sigma) and BCECF-AM (Calbiochem) on a microspectrofluorimeter by a standard technique (Koshevoy Yu. V., Akatov V. S., Grobova M. E. Microspectrofluorimeter for measuring endocellular pH (micro pH)”. Devices and equipment for studies in the field of physical-and-chemical biology and biotechnology. Pushchino, 1990. P. 8-14).
The cells at a temperature of 37° C. were colored within 5 minutes with 5.0 mkM PDA that before the colouring was prepared from a 10.0 mM solution in acetone by dilution for 30 minutes in a phosphatic buffer to 0.1 mM or 2.0 mkM 1.0 mM solution BCECF-AM in DMSO.
The two-wave method of determining pHi was used based on the ratio intensities of fluorescence of the cells on two wavelengths (Akatov V. S. et all), “Endocellular pH and substrate dependence of proliferation of fibroblasts of Chinese hamster, Cytology, 1991, 33 (7), p. 86-94). The fluorescence was excited by light at λ=490 nm, the emission was recorded simultaneously with two photomultipliers on wavelengths λ=535 nm and λ=570 nm. The K-ratio of the fluorescence on two wavelengths was determined with a deduction of the background fluorescence of the medium near the investigated cells for 40-60 individual cells, which are then averaged taking into account the measurement error. A thermostatically controlled table was used that allowed measurements to be conducted at a temperature of 37° C. An account was taken for the photodynamic damage of the pigmented cells during-long-time continuous illumination by excited light. The readings were taken from a section of the preparation exposed to light for not more than 5 minutes.
The calibration curves for determining the absolute pHi values by magnitude K were constructed using the Thomas technique (Thomas J. A., Bushbaum R. N., Zimniak A. w Racker E. “Intracellular pH measurements in Ehrlich ascites tumor cells utilizing spectroscopic probe generated in situ”, Biochemistry, 1979, v. 18, p. 2210-2218), for which case the pigmented cells treated for 5-10 minutes with carboxyacidic nigericyn (Calbiochem) at a concentration of 5-10 mkg/ml was placed in a solution with a high content of potassium—130 mM KCl, 1.0 mM MgCl2, 20.0 mM of HEPES) and with pH values from 6.2 to 7.6. The K values were measured in the media with different pH assuming that pHi of the cells equals to the pH of the medium due to the action of nigericyn, which exchanges potassium ions for protons and at a high content of potassium in the medium counterbalances the pH of the medium and cells. Calibration curves were used based on the fluorescence of same medium with addition of 5.0 mkM of fluorescence or BCECF were used to the control the stability of the of the instrument readings.
The correctness of the technique was confirmed in the experiments on measurements of pH values of cells treated with protonofor monencine raising pH of the cells due to replacement of sodium ions by protons, and by determining the dependence of the change of pHi on the change of the pH of the medium. […]

[2] = test system: embyronic fibroblasts of mouse NIH-3T3; conditions: 1-5 mkM; 15-20 minutes; cells of mice NSO and NIH-3T3; cited from earlier work

For `CC[C@@]1([C@@H]2O[C@@H]([C@H]3O[C@@](O)(CO)[C@H](C)C[C@@H]3C)C[C@@H]2C)CC[C@H]([C@]2(C)CC[C@]3(C[C@H](O)[C@@H](C)[C@@H]([C@@H](C)[C@@H](OC)[C@H](C)C(=O)O)O3)O2)O1` [monensine, reference compound], the “rise of pHi” value [1] is listed as 0.12 pH unit and the “increase of pHi” value [2] is listed as 0.2 unit.
